Reference: the supplement of paper PMC12463676, “Small-molecule dissolution of stress granules by redox modulation benefits ALS models” (Nature Chemical Biology, 2025)

Key:
potassium arsenate = compound: O=[As]([O-])(O)O.[K+] [potassium arsenate]; test: thermal stability z-score vs DMSO; higher = more thermally stabilized by treatment; details: HeLa; arsenate concentration 1 mM
Method: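 Cellular thermal proteome profiling in HeLa cells treated with 1 mM arsenate for 1 h (DMSO pretreatment), heated to ten temperatures (37-66.3 °C). Soluble protein was quantified by TMT mass spectrometry relative to DMSO controls; the thermal stability score was transformed to a z-score; mean of n = 3 experiments.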

lipoamide = compound: NC(=O)CCCCC1CCSS1 [lipoamide]; test: as above; details: HeLa, lipoamide concentration 100 µM
Method: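 Cellular thermal proteome profiling in HeLa cells. Cells were treated with 100 µM lipoamide for 1 h, with or without 1 mM arsenate for a further 1 h, then heated to ten temperatures (37-66.3 °C), and soluble protein was quantified by TMT mass spectrometry relative to 0.1% DMSO controls. The thermal stability score (sum of log2 fold changes minus the abundance score) was transformed to a z-score; mean of n = 3 experiments.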

[1] = arsenate co-treatment: 1 mM arsenate 1 h
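Also: each temperature applied for 3 min, abundance score taken as mean log2 fold change at the two lowest temperatures, z-score obtained by mean subtraction and division by SD.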

UniProt O75312, sequence (O75312 whole entry): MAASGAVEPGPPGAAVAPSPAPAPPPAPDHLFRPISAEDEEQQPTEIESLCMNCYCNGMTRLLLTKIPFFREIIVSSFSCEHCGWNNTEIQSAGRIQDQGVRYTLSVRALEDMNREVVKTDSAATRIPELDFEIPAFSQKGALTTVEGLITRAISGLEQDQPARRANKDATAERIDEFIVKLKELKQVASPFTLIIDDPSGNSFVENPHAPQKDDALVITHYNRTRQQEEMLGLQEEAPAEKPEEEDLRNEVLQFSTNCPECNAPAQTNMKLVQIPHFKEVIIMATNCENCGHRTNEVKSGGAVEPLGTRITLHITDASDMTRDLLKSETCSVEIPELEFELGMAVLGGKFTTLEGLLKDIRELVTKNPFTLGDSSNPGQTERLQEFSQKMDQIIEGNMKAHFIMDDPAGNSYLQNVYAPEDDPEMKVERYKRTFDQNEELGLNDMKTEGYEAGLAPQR
UniProt Q14966, sequence (Q14966 whole entry): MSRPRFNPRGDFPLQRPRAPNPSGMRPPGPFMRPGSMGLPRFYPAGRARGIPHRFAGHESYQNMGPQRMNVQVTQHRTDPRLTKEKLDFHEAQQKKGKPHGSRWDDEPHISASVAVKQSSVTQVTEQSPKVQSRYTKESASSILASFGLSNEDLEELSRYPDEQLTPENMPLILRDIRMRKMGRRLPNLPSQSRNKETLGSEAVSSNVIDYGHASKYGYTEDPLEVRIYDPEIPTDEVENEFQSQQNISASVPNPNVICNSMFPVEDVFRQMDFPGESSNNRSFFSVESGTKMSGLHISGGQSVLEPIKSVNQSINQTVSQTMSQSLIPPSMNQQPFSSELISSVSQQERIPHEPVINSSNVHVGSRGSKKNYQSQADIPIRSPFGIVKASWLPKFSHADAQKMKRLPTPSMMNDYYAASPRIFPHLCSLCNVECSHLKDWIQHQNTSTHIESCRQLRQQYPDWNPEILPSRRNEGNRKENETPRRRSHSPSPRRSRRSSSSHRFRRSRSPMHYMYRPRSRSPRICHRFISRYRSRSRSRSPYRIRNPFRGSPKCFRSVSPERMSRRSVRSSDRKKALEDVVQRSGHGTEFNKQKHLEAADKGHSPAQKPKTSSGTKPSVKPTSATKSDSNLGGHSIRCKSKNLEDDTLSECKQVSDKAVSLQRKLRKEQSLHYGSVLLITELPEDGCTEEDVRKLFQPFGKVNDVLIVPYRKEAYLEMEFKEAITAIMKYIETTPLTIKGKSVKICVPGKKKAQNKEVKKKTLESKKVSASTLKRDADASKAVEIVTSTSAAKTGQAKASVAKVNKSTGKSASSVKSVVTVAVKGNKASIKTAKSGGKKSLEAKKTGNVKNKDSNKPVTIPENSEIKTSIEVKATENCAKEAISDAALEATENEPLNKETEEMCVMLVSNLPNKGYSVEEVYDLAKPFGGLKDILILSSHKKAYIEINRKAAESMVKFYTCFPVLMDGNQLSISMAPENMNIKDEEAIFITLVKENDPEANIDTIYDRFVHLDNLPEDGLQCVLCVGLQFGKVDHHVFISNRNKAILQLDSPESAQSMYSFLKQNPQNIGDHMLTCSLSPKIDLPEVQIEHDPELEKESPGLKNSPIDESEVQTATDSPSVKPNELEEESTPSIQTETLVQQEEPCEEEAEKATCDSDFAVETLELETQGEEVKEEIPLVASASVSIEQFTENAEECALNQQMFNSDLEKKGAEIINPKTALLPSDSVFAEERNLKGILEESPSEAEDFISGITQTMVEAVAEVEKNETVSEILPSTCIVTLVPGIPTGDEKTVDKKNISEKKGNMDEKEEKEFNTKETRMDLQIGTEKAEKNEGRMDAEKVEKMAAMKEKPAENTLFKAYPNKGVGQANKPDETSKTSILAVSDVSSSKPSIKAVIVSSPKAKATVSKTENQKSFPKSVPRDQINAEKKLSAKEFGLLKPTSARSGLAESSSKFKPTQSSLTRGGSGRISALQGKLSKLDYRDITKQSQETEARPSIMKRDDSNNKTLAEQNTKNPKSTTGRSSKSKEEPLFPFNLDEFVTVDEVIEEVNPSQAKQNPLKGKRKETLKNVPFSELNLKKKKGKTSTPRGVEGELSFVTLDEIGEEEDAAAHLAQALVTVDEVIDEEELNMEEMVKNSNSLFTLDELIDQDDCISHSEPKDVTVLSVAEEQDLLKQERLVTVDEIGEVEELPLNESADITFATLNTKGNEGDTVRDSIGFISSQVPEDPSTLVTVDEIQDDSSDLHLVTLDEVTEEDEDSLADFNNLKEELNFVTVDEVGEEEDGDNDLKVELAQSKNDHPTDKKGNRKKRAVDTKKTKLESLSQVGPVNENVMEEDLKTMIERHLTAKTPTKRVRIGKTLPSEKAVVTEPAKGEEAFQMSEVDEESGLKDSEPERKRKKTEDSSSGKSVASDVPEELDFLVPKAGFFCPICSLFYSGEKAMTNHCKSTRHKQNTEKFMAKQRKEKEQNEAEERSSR
UniProt Q86UK7, sequence (Q86UK7 whole entry): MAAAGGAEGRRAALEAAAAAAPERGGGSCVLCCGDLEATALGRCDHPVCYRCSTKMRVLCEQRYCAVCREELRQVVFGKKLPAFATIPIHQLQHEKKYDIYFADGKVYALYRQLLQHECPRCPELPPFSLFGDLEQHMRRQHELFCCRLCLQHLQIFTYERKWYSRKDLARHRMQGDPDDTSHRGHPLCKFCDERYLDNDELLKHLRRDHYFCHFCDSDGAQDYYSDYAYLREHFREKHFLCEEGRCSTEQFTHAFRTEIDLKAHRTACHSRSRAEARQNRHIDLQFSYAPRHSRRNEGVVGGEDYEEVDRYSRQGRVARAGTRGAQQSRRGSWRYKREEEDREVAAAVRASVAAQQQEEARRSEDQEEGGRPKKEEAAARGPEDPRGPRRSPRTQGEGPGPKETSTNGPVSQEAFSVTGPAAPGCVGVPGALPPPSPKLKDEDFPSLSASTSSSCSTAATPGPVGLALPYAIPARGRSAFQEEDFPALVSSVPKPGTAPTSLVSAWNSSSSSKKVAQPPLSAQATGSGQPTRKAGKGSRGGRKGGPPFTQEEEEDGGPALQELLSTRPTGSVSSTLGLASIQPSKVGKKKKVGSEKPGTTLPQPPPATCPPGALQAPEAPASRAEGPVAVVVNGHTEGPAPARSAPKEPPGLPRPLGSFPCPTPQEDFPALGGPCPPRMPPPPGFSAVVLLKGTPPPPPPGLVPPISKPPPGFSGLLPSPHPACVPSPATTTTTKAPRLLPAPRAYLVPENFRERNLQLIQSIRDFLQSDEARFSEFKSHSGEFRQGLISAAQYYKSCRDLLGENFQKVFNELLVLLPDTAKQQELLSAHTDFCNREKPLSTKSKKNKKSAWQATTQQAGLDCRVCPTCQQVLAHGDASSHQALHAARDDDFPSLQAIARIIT
UniProt Q5VZL5, sequence (Q5VZL5 whole entry): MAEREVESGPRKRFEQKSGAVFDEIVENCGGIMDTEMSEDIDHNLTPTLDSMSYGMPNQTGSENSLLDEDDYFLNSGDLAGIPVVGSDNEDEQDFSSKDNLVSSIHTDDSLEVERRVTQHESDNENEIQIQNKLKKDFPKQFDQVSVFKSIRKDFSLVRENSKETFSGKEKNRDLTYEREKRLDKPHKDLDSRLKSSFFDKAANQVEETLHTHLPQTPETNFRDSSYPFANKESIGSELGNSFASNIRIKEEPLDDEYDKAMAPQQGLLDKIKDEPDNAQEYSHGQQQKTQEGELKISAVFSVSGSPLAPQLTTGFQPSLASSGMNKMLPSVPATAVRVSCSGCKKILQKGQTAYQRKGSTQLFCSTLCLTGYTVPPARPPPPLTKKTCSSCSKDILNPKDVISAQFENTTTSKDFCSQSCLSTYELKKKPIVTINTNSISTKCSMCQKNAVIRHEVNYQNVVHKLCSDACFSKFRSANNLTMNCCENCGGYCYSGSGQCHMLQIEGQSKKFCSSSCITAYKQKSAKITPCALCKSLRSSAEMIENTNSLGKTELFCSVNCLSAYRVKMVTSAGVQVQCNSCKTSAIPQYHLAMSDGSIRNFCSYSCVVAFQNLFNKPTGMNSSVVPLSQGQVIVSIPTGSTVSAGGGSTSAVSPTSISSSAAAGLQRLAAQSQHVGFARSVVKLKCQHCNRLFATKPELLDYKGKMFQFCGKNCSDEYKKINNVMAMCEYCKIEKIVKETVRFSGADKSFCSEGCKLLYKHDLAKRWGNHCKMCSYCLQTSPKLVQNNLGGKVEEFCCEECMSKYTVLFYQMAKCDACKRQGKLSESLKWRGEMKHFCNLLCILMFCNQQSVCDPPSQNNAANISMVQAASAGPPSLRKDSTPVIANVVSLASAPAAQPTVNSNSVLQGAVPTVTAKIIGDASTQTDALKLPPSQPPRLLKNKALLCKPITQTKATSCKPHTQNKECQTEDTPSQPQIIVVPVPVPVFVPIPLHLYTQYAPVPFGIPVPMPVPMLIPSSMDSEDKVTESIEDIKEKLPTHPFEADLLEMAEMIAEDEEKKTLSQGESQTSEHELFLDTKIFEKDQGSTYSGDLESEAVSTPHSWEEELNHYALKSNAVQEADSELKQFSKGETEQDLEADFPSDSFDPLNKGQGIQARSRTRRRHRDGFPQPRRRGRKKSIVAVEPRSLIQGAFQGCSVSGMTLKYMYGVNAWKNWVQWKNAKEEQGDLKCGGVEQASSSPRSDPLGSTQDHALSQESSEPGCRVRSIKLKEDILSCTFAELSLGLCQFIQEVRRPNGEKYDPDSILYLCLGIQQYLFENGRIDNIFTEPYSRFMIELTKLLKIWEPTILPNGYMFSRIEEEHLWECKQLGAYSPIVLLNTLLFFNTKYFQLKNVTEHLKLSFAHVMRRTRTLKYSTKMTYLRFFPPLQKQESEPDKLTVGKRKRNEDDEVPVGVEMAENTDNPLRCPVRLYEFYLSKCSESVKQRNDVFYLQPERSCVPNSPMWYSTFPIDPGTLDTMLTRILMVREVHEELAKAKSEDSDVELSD
UniProt Q96NC0, sequence (Q96NC0 whole entry): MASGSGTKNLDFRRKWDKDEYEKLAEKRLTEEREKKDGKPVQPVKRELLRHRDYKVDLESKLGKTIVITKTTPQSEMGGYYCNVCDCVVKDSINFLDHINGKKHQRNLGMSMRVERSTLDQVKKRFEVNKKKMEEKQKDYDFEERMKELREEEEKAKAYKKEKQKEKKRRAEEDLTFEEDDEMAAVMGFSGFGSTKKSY

Row | Target | thermal stability z-score (potassium arsenate) | thermal stability z-score (lipoamide; [1]) | thermal stability z-score (lipoamide; arsenate co-treatment: none)
1 | ZFYVE9 (UniProt O95405) | -0.021 | -0.0978 | -0.0701
2 | ZFYVE16 (UniProt Q7Z3T8) | -0.676 | -0.45 | 0.222
3 | ZFYVE19 (UniProt Q96K21) | -3.34 | -0.473 | -0.599
4 | ZFYVE27 (UniProt Q5T4F4) | 0.0943 | -0.0642 | -0.19
5 | ZGPAT (UniProt Q8N5A5) | -0.307 | -0.303 | -0.13
6 | ZHX1 (UniProt Q9UKY1) | -0.0668 | 0.0297 | 0.122
7 | ZHX3 (UniProt Q9H4I2) | -0.227 | -0.187 | -0.116
8 | ZKSCAN1 (UniProt P17029) | 0.128 | -0.0617 | 0.0599
9 | ZMAT2 (UniProt Q96NC0) | -1.13 | -0.00196 | -0.398
10 | ZMIZ2 (UniProt Q8NF64) | -0.482 | -0.177 | -0.321
11 | ZMPSTE24 (UniProt O75844) | 0.325 | 0.105 | -0.234
12 | ZMYM1 (UniProt Q5SVZ6) | -0.798 | 0.0919 | 0.0471
13 | ZMYM2 (UniProt Q9UBW7) | -0.802 | -0.105 | -0.0436
14 | ZMYM3 (UniProt Q14202) | -1.2 | 0.69 | 0.308
15 | ZMYM4 (UniProt Q5VZL5) | -0.646 | -0.347 | 0.0509
16 | ZNF24 (UniProt P17028) | -0.114 | 0.0764 | -0.217
17 | ZNF143 (UniProt P52747) | 0.0928 | -0.135 | -0.0231
18 | ZNF148 (UniProt Q9UQR1) | 0.415 | 0.37 | 0.389
19 | ZNF207 (UniProt O43670) | 0.167 | 0.132 | -0.22
20 | ZNF217 (UniProt O75362) | -0.589 | -0.058 | 0.343
21 | ZNF277 (UniProt Q9NRM2) | -0.515 | 0.365 | 0.166
22 | ZNF281 (UniProt Q9Y2X9) | 0.133 | -0.165 | -0.214
23 | ZNF326 (UniProt Q5BKZ1) | 0.0996 | -0.0719 | 0.0989
24 | ZNF330 (UniProt Q9Y3S2) | -0.558 | -0.367 | -0.417
25 | ZNF346 (UniProt Q9UL40) | 0.04 | -0.17 | 0.0809
26 | ZNF384 (UniProt Q8TF68) | -0.241 | -0.017 | 0.00673
27 | ZNF428 (UniProt Q96B54) | 1.85 | 1.64 | 2.65

Row | Target | thermal stability z-score (potassium arsenate) | thermal stability z-score (lipoamide; [1]) | thermal stability z-score (lipoamide; arsenate co-treatment: none)
28 | ZNF451 (UniProt Q9Y4E5) | 0.171 | 0.0272 | 0.0565
29 | ZNF579 (UniProt Q8NAF0) | 0.155 | -0.34 | -0.434
30 | ZNF593 (UniProt O00488) | -6.67 | 4.3 | 2.19
31 | ZNF598 (UniProt Q86UK7) | -0.82 | 0.0109 | -0.407
32 | ZNF609 (UniProt O15014) | -0.0848 | 0.0184 | -0.0967
33 | ZNF622 (UniProt Q969S3) | 1.39 | -0.153 | -0.393
34 | ZNF629 (UniProt Q9UEG4) | -0.114 | 0.162 | -0.369
35 | ZNF638 (UniProt Q14966) | -0.032 | 0.83 | 0.27
36 | ZNF668 (UniProt Q96K58) | -0.073 | 0.0589 | -0.155
37 | ZNF703 (UniProt Q9H7S9) | 0.019 | 0.173 | 0.148
38 | ZNF706 (UniProt Q9Y5V0) | 0.0846 | 1.04 | 0.371
39 | ZNF787 (UniProt Q6DD87) | 0.223 | 0.853 | 1.17
40 | ZNF830 (UniProt Q96NB3) | -0.642 | 1.38 | 0.482
41 | ZNFX1 (UniProt Q9P2E3) | 2.01 | 0.113 | 1.85
42 | ZNHIT2 (UniProt Q9UHR6) | -0.28 | -0.047 | 0.147
43 | ZNHIT6 (UniProt Q9NWK9) | 0.0739 | 1.08 | 0.924
44 | ZNRF2 (UniProt Q8NHG8) | -2.6 | -0.729 | -0.885
45 | ZPR1 (UniProt O75312) | -1.09 | 0.753 | -0.187
46 | ZRANB2 (UniProt O95218) | -0.286 | -0.755 | -0.097
47 | ZSWIM8 (UniProt A7E2V4) | -0.0789 | 0.028 | 0.0796
48 | ZW10 (UniProt O43264) | 0.692 | -0.0261 | -0.137
49 | ZWILCH (UniProt Q9H900) | -0.55 | -0.3 | -0.512
50 | ZWINT (UniProt O95229) | 0.0525 | 0.0176 | -0.0608
51 | ZYG11B (UniProt Q9C0D3) | -0.142 | -0.0727 | -0.16
52 | ZYX (UniProt Q15942) | -0.00636 | 0.568 | 0.672
53 | ZZEF1 (UniProt O43149) | 0.0396 | 0.044 | 0.201
